Reference: patent US12409206B2, “Use of cyclosporine analogues for treating fibrosis” (Hepion Pharmaceuticals, Inc., priority 2020, dated 2025)

Columns and labels:
[1] = test system: human precision cut IPF lung slices; test: Secreted markers (ELISA) in precision cut IPF lung slices in culture; format: cell-based; details: CRV431 applied at 5 μM; 4 daily treatment intervals; relative to DMSO vehicle
Procedure: (§1) This example describes a study conducted with precision cut lung slices. Precision cut slices from explanted lung tissue from a patient with biopsy-confirmed, idiopathic pulmonary fibrosis (IPF) were cultured for 6 days. Treatments were applied to 6 replicate slices per treatment on Day 2 of culture and replaced daily on Days 3, 4, and 5 of culture.
For generating the results of secreted marker (% daily average change) shown in FIG. 6A, spent medium (24-hr intervals) was collected on Days 3, 4, 5, and 6 to measure secretion by ELISA of six markers of inflammation and fibrosis: monocyte chemoattractant protein (MCP-1), interleukin-6 (IL-6), matrix metalloproteinase-7 (MMP-7), tissue inhibitor of metalloproteinase-1 (TIMP1), hyaluronic acid, and collagen 1α1. The mean level of secretion from 6 replicate slices for each drug treatment was expressed as a percentage change relative to DMSO vehicle treatment for each day of treatment, and then the mean percentage change from 4 daily treatment intervals was calculated.

[2] = test system: human precision cut IPF lung slices; test: Gene expression (RT-PCR) in precision cut IPF lung slices in culture; format: cell-based; details: CRV431 applied at 5 μM; Day 6 of culture after 4 days of treatment; β actin reference
Procedure: as §1
For generating the results of gene expression shown in FIG. 6B, RNA was isolated from 6 pooled lung slices per treatment on Day 6 of culture following 4 days of drug or vehicle treatment and evaluated by reverse transcription-polymerase chain reaction (RT-PCR) for 6 markers of inflammation and fibrosis: MCP-1, IL-6, TGFβ TIMP1, collagen 1α1, and α-smooth muscle actin (αSMA). β actin was used as a reference gene to calculate relative levels of each target gene RNA.

[3] = test system: human precision cut liver slices (PCLS); test: PCLS Sirius red tissue fibrosis, Nonstimulation Protocol; format: cell-based; details: 6 days of culture in the absence of exogenous TGFβ+PDGF-BB; most CRV431-treated slices
Procedure: PCLS were obtained from 5 human donors who underwent resection of liver cancer. Replicate slices were collected from healthy margins of the resections and cultured for 4 or 6 days depending on the experimental protocol. In the Nonstimulation Protocol slices were cultured for 6 days and treated for the entire period with DMSO vehicle or 5 μM CRV431. In the Stimulation Protocol slices were rested for 1 day and then administered the cytokines, TGFβ and PDGF-BB, for 3 days to stimulate inflammation and fibrosis. […]
Four types of evaluations were conducted on the PCLS: (a) secretion of inflammation and fibrosis biomarkers into the culture medium, (b) histological staining and quantitation of Sirius red as a measure of tissue fibrosis, (c) gene expression of inflammation and fibrosis biomarkers by RT-PCR, and (d) RNA sequencing (RNA-Seq) of the complete transcriptome. […] ELISAs were used to quantify secretion of monocyte chemoattractant protein (MCP-1), interleukin-6 (IL-6), tissue inhibitor of metalloproteinase-1 (TIMP1), hyaluronic acid, fibronectin, and collagen 1α1. For each donor the mean level of biomarker secretion in each treatment group was expressed as a percentage change relative to DMSO vehicle, the percentages averaged for all donors, and finally the mean daily percentage change calculated from all days of evaluation. […]

[4] = test system: Human adult dermal fibroblasts; test: Procollagen and fibronectin ELISA of spent medium, dermal fibroblast culture; format: cell-based; details: medium from Day 1-2 of treatment, in the absence or presence of 10 ng/ml EGF or 0.4 ng/ml TGFβ
Procedure: Human adult dermal fibroblasts (Lonza Bioscience, Cat. #CC-2511) were cultured in 96-well plates. Treatments were applied in triplicate wells (applied 100 ul treatments per well) for 1 day, then re-applied for one additional day. Cells were near confluence at the start of treatments. […] Spent culture medium collected from Day 1-2 of treatment was assayed for procollagen and fibronectin by enzyme-linked immunosorbent assays (ELISA) (Procollagen ELISA antibody pair (ab216064) and fibronectin ELISA antibody pair (ab222262) from Abcam). Procollagen and fibronectin were not detected in medium not applied to cells. Procollagen and fibronectin levels in the medium are represented by means±SD (bars) from 3 replicate wells (open circles). […].

[5] = test system: Human Lung Fibroblasts from a Patient with Idiopathic Pulmonary Fibrosis (IPF); test: Cell viability analysis, IPF lung fibroblast culture; format: cell-based; details: end of treatment (6 days)
Procedure: Human Lung Fibroblasts from a Patient with Idiopathic Pulmonary Fibrosis (IPF) (Lonza Bioscience, Cat. #CC-7231) were cultured in 96-well plates. Treatments were applied in triplicate wells (applied 100 ul treatments per well) for 6 days. Cells were near confluence at the start of treatments. […] Spent culture medium collected at the end of the treatments was assayed for procollagen and fibronectin by enzyme-linked immunosorbent assays (ELISA) (Procollagen ELISA antibody pair (ab216064) and fibronectin ELISA antibody pair (ab222262) from Abcam). Procollagen and fibronectin were not detected in medium not applied to cells. Procollagen and fibronectin levels in the medium are represented by means±SD (bars) from 3 replicate wells (open circles).

[6] = test system: experimental models of NASH; details: cited from earlier work

SMILES: CC[C@@H]1NC(=O)[C@H]([C@H](O)[C@H](C)CCCCCCNC(C)=O)N(C)C(=O)[C@H](C(C)C)N(C)C(=O)[C@H](CC(C)C)N(C)C(=O)[C@H](CC(C)C)N(C)C(=O)[C@@H](C)NC(=O)[C@H](C)NC(=O)[C@H](CC(C)C)N(C)C(=O)[C@H](C(C)C)NC(=O)[C@H](CC(C)C)N(C)C(=O)[C@@H](C)N(C)C1=O [CRV431]
- mean daily secretion of all markers (MCP-1, IL-6, MMP-7, TIMP1, hyaluronic acid, collagen 1α1) [1]: decreased
- gene expression of all markers (MCP-1, IL-6, TGFβ, TIMP1, collagen 1α1, αSMA) [2]: decreased
- tissue fibrosis vs vehicle-treated slices [3]: less fibrosis than vehicle-treated slices
- abundance of fibronectin in the medium [4]: dose-dependently decreased
- abundance of procollagen in the medium [4]: dose-dependently decreased
- cell viability [5]: none of the CRV431 treatments affected cell viability
- hepatocellular carcinoma tumor burden [6]: can reduce
- liver fibrosis arising from non-alcoholic steatohepatitis [6]: can reduce
